Laboratory results as given in patent US5446157A, “Boron difluoride compounds useful in photodynamic therapy and production of laser light” (priority 1993, dated 1995).
Like-named read-outs stand apart in the source and are kept apart here. Each block holds one molecule with its values, some of them ahead of it.

Key:
[1] = Photostability under irradiation with 250 watt sun lamp; assay type: physicochemical
Protocol: In addition, experiments were conducted in order to determine the photostability of the product of Example I. A solution was prepared by mixing 0.1 g of the product with 50 ml of dichloromethane solvent. The solution was placed in a 100 ml round bottom flask and irradiated with light from a sun lamp (250 watts at a distance of approximately 8 inches from the flask). […] However, another solution was made by combining 0.1 g of product in 250 ml of CH3 OH and 10 ml of CH2 Cl2. Addition of the CH2 Cl2 was undertaken to obtain complete dissolution. The solution was placed in a […] and irradiated as described above. […] Thus, the use of different solvents will cause a variation in both the character and duration of fluorescence.
In addition, a further test was conducted in order to determine the photostability of the product. Specifically, 2.0 mg of the product in a 100 ml round bottom flask was dissolved in 50 ml of H2 O. The solution was then irradiated by light from a 250 watt sun lamp placed approximately 8 inches from the flask. UV spectral data was recorded periodically as shown below in Table III.

[2] = Laser characteristics of pyrromethene-BF2 complexes under flashlamp excitation (Table IV); details: for Life: DMA/MeOH
[3] = cited from earlier work
[4] = Solubility/fluorescence in various solvents (Tables I, II); assay type: physicochemical
Protocol: In addition, tests were conducted on the product in order to determine its solubility/fluorescence in various solvents. One property of the compositions described herein involves a variable degree of solubility/fluorescence relative to the solvents with which they are combined. Data showing a variety of different solvents combined with the product of Example I is presented below in Table I:
As in Example I, tests were conducted on the product in Example II in order to determine its fluorescence in various solvents. Data showing a variety of different solvents combined with the product of Example II is presented below in Table II: […]

[5] = Fluorescence (λf, quantum yield); assay type: physicochemical; details: FIG. 2, in ethanol
Protocol: Instruments for spectroscopic measurements included: Perkin-Elmer 1600 FTIR, Varian Gernini 300 NMR, Hewlett-Packard 5985 (70 eV) GC-MS, Cary 17 (UV), and Perkin-Elmer LS-5B Luminescence spectrometer. A dye laser was constructed and operated in the non-flowing (static) mode and had no tuning capability. […] Laser energy outputs were measured with an accuracy of ±5% by a Scientech 365 power and energy meter.
Light absorption, luminescence, and laser activity properties for the dyes 7 are described in Table VI. Each recorded UV absorption was restricted to the highest wave length. Fluorescence quantum yields of the dyes were determined for ethanol solutions with excitation at 450 and 460 nm by reference to acridine orange, .PHI.0.46, in ethanol; for the dye 7p the reference was R-6G, <P 0.90. Melting points were obtained from a Mel-Temp II device and were uncorrected. The solvent for ^1 H NMR spectra was chloroform-d with tetramethylsilane as an internal standard. Elemental analyses were obtained from Midwest Micro Lab, Indianapolis, Ind. and Galbraith Laboratories, Inc., Knoxville, Tenn. Solvents were removed by rotary evaporation under reduced pressure unless indicated otherwise. Column chromatography was performed on silica gel. Molecular weights were confirmed by EI-MS for the pyrrole 4j 193 and for laser dyes 7d 346, 7e 374, 7g 374, 7i 342, 7j 314 and 7x 360. IR absorption data satisfactorily supported structure assignments for the laser dyes 7.
^[b] 2 × 10^-4 M in ethanol except where noted otherwise.

[6] = Ref [2], cited from earlier work; for λmax: 5 × 10^-6 M in ethanol
[7] = P-BF2 dyes dispersed in acrylic co-polymer (solid-state laser)
Source text: Any laser dye of the present invention may be substituted for the dye in any of the examples of that incorporated patent. The matrix generally includes solid polymeric host laser rods prepared using bulk polymerization of acrylic acid ester comonomers.

[8] = Photostability in methanol under flashlamp excitation pulses
[9] = 2 × 10^-4 M in ethanol, Ref [2]

fluorescence after irradiation (photostability) ([1]; 0.1 g in 250 ml CH3 OH and 10 ml CH2 Cl2, sun lamp, 8 days): no fluorescence was observed | Life [2]: ~50 kJ/L | Color of Fluorescence, Room light ([4]; (CF3)2 CHOH): green | Color of Fluorescence, UV ([4]; (CF3)2 CHOH): green | Color of Solution ([4]; (CF3)2 CHOH): yellow | Solubility ([4]; (CF3)2 CHOH): soluble | Color of Fluorescence, Room light ([4]; CClF2 --CFCl2): green | Color of Fluorescence, UV ([4]; CClF2 --CFCl2): green | Color of Solution ([4]; CClF2 --CFCl2): yellow | Color of Solution ([4]; CF3 CH2 OH): green | Solubility ([4]; CH2 Cl2): soluble | Solubility ([4]; H2 O): insoluble
SMILES: CC1=CC(C)=[N+]2C1=C(C)c1c(C)cc(C)n1[B-]2(F)F [Compound 7a, 4,4-difluoro-1,3,5,7,8-pentamethyl-4-bora-3a,4a-diaza-s-indacene]
visual change in fluorescence (photostability) ([1]; 0.1 g in 50 ml dichloromethane, sun lamp, 22 days): No visual change in fluorescence was observed | λf [3, 9]: 519 nm | .PHI.f ([3]; Ref [2]): 0.99 | wavelength of incident light that produced the greatest fluorescence [5]: 500-550 nm | λmax [6]: 493 nm | log ε [6]: 4.90

SMILES: CC1=C(C)C(C)=[N+]2C1=C(C)c1c(C)c(C)c(C)n1[B-]2(F)F [Compound 7b]
λf [3, 9]: 546 nm | .PHI.f ([3]; Ref [2]): 0.70 | λmax [6]: 518 nm | log ε [6]: 4.67

solubility in the polymer matrix [7]: particularly soluble
SMILES: CCC1=C(C)C2=C(C)c3c(C)c(CC)c(C)n3[B-](F)(F)[N+]2=C1C [Compound 7c, 1,3,5,7,8-pentamethyl-2,6-diethylpyrromethene-BF2 complex]
λf [3, 9]: 546 nm | .PHI.f ([3]; Ref [2]): 0.83 | λmax [6]: 517 nm | log ε [6]: 4.81

SMILES: CCN=c1cc2oc3cc(NCC)c(C)cc3c(-c3ccccc3C(=O)OCC)c-2cc1C [Compound R-6G, reference compound]
fluorescence quantum yield of reference ([3]; reference standard): 0.90 | photostability in methanol [8]: 1500 pulses

Eo after 1000 S at 25 J ([2]; footnote to Life, after 1000 S at 25 J): ~ 80 mJ
SMILES: CCC1=C2C(C)=CC(C)=[N+]2[B-](F)(F)n2c(C)cc(C)c21 [III, 4,4-difluoro-1,3,5,7-tetramethyl-8-ethyl-4-bora-3a,4a-diaza-s-indacene]

SMILES: CCN=c1cc2oc3cc(NCC)c(C)cc3c(-c3ccccc3C(=O)OCC)c-2cc1C [Rhodamine 590, reference compound]
Life [2]: 15 kJ/L

SMILES: c1ccc2cc3ccccc3cc2c1 [anthracene, reference compound]
λf ([3]; literature): 400 nm
